From publication PMC5218480 (PLoS ONE, 2017) come the findings set out here.

The structures appear in SMILES notation.

The subject of this assay is MV-4-11 cells. Kind of assay: Gene expression microarray analysis (Affymetrix PrimeView) and GSEA. Conditions: MV-4-11 cells, 48 hours. Further details: RFU PODN (11730768_x_at) / Fold change /veh PODN (11730768_x_at) / RFU LINC00158 (11744669_a_at) / Fold change /veh LINC00158 (11744669_a_at) / RFU DUSP10 (11751237_a_at) / Fold change /veh DUSP10 (11751237_a_at) / RFU ID3 (11757404_x_at) / Fold change /veh ID3 (11757404_x_at) / RFU PLEKHG5 (11737974_s_at) / Fold change /veh PLEKHG5 (11737974_s_at) / RFU LRRC4B (11730491_at) / Fold change /veh LRRC4B (11730491_at) / RFU GIMAP4 (11747438_a_at) / Fold change /veh GIMAP4 (11747438_a_at) / RFU KRT8 (11758183_x_at) / Fold change /veh KRT8 (11758183_x_at) / RFU CNN1 (11734310_a_at) / Fold change /veh CNN1 (11734310_a_at) / RFU VPS37D (11726825_at) / Fold change /veh VPS37D (11726825_at) / RFU C10orf10 (11716522_x_at) / Fold change /veh C10orf10 (11716522_x_at) / RFU KIR2DL2 /// KIR2DL4 /// KIR2DL5A /// KIR2DL5B /// KIR2DS1 /// KIR2DS2 /// KIR2DS3 /// KIR2DS4 /// KIR3DL3 /// KIR3DL3 /// KIR3DS1 (11738374_at) / Fold change /veh KIR2DL2 /// KIR2DL4 /// KIR2DL5A /// KIR2DL5B /// KIR2DS1 /// KIR2DS2 /// KIR2DS3 /// KIR2DS4 /// KIR3DL3 /// KIR3DL3 /// KIR3DS1 (11738374_at) / RFU C1QL1 (11718748_at) / Fold change /veh C1QL1 (11718748_at) / RFU TMPRSS4 (11747572_a_at) / Fold change /veh TMPRSS4 (11747572_a_at) / RFU HAMP (11756126_x_at) / Fold change /veh HAMP (11756126_x_at) / RFU RNFT2 (11725882_a_at) / Fold change /veh RNFT2 (11725882_a_at) / RFU NR4A2 (11747474_a_at) / Fold change /veh NR4A2 (11747474_a_at) / RFU ABCC12 (11746883_a_at) / Fold change /veh ABCC12 (11746883_a_at) / RFU TMEM136 (11760407_x_at) / Fold change /veh TMEM136 (11760407_x_at) / RFU CLDN22 /// WWC2 (11732394_at) / Fold change /veh CLDN22 /// WWC2 (11732394_at) / RFU HLA-DPB1 (11760878_x_at) / Fold change /veh HLA-DPB1 (11760878_x_at) / RFU SPINT1 (11716480_a_at) / Fold change /veh SPINT1 (11716480_a_at) / RFU GAP43 (11754022_s_at) / Fold change /veh GAP43 (11754022_s_at) / RFU A4GNT (11735810_at) / Fold change /veh A4GNT (11735810_at) / RFU PRB3 (11715151_x_at) / Fold change /veh PRB3 (11715151_x_at) / RFU TUBB4B (11761932_at) / Fold change /veh TUBB4B (11761932_at) / RFU CAPN14 (11732068_a_at) / Fold change /veh CAPN14 (11732068_a_at) / RFU TMCC2 (11721928_a_at) / Fold change /veh TMCC2 (11721928_a_at) / RFU IRGQ (11745062_a_at) / Fold change /veh IRGQ (11745062_a_at) / RFU FAM174B (11720279_a_at) / Fold change /veh FAM174B (11720279_a_at) / RFU TMPRSS4 (11748680_a_at) / Fold change /veh TMPRSS4 (11748680_a_at) / RFU FAM212B (11763350_a_at) / Fold change /veh FAM212B (11763350_a_at) / RFU PLEKHG5 (11743358_a_at) / Fold change /veh PLEKHG5 (11743358_a_at) / RFU ZSCAN30 (11745921_a_at) / Fold change /veh ZSCAN30 (11745921_a_at) / RFU CMKLR1 (11741424_a_at) / Fold change /veh CMKLR1 (11741424_a_at) / RFU LOC101060620 /// MAPK8IP1 (11723275_at) / Fold change /veh LOC101060620 /// MAPK8IP1 (11723275_at) / RFU SPTSSB (11747773_x_at) / Fold change /veh SPTSSB (11747773_x_at) / RFU PRSS12 (11739890_at) / Fold change /veh PRSS12 (11739890_at) / RFU BIN1 (11741810_x_at) / Fold change /veh BIN1 (11741810_x_at) / RFU WNT11 (11732464_a_at) / Fold change /veh WNT11 (11732464_a_at) / RFU C10orf10 (11716521_a_at) / Fold change /veh C10orf10 (11716521_a_at) / RFU C5orf56 (11738089_at) / Fold change /veh C5orf56 (11738089_at) / RFU CYB561 (11721691_x_at) / Fold change /veh CYB561 (11721691_x_at) / RFU ANKRD19P (11752326_a_at) / Fold change /veh ANKRD19P (11752326_a_at) / RFU OR2T12 /// OR2T33 /// OR2T8 (11738714_s_at) / Fold change /veh OR2T12 /// OR2T33 /// OR2T8 (11738714_s_at) / RFU VCAN (11748164_a_at) / Fold change /veh VCAN (11748164_a_at) / RFU JSRP1 (11732532_at) / Fold change /veh JSRP1 (11732532_at) / RFU KRTAP10-11 (11738290_x_at) / Fold change /veh KRTAP10-11 (11738290_x_at) / RFU MYO3A (11730013_a_at) / Fold change /veh MYO3A (11730013_a_at) / RFU EBF3 (11725865_a_at) / Fold change /veh EBF3 (11725865_a_at) / RFU CAMK2N1 (11719241_x_at) / Fold change /veh CAMK2N1 (11719241_x_at) / RFU C5orf56 (11738088_a_at) / Fold change /veh C5orf56 (11738088_a_at) / RFU OLFML3 (11715873_a_at) / Fold change /veh OLFML3 (11715873_a_at) / RFU LOC100653217 /// NTM (11731650_a_at) / Fold change /veh LOC100653217 /// NTM (11731650_a_at) / RFU MAPK11 (11762145_a_at) / Fold change /veh MAPK11 (11762145_a_at) / RFU FIZ1 (11724087_x_at) / Fold change /veh FIZ1 (11724087_x_at) / RFU OASL (11726364_x_at) / Fold change /veh OASL (11726364_x_at) / RFU SOX15 (11748057_x_at) / Fold change /veh SOX15 (11748057_x_at) / RFU CD79A (11719716_a_at) / Fold change /veh CD79A (11719716_a_at) / RFU HIST1H1D (11736915_at) / Fold change /veh HIST1H1D (11736915_at) / RFU CASKIN2 (11723855_a_at) / Fold change /veh CASKIN2 (11723855_a_at) / RFU LOC730098 (11760151_x_at) / Fold change /veh LOC730098 (11760151_x_at) / RFU OR4N2 (11742367_at) / Fold change /veh OR4N2 (11742367_at) / RFU PRRT2 (11749266_a_at) / Fold change /veh PRRT2 (11749266_a_at) / RFU SNX32 (11753110_a_at) / Fold change /veh SNX32 (11753110_a_at) / RFU CDHR5 (11726645_a_at) / Fold change /veh CDHR5 (11726645_a_at) / RFU RCAN1 (11760418_a_at) / Fold change /veh RCAN1 (11760418_a_at) / RFU FAM167A (11723789_a_at) / Fold change /veh FAM167A (11723789_a_at) / RFU FAM26E (11764081_at) / Fold change /veh FAM26E (11764081_at) / RFU ISYNA1 (11749810_s_at) / Fold change /veh ISYNA1 (11749810_s_at) / RFU ACY1 (11761880_at) / Fold change /veh ACY1 (11761880_at) / RFU 11764098_at / Fold change /veh 11764098_at / RFU SAMD14 (11745864_x_at) / Fold change /veh SAMD14 (11745864_x_at) / RFU NPB (11741838_a_at) / Fold change /veh NPB (11741838_a_at) / RFU TMPRSS6 (11731388_a_at) / Fold change /veh TMPRSS6 (11731388_a_at) / RFU KRTAP10-2 (11738614_at) / Fold change /veh KRTAP10-2 (11738614_at) / RFU ARHGAP8 /// PRR5-ARHGAP8 (11727945_x_at) / Fold change /veh ARHGAP8 /// PRR5-ARHGAP8 (11727945_x_at) / RFU KRTAP5-7 /// NADSYN1 (11734609_at) / Fold change /veh KRTAP5-7 /// NADSYN1 (11734609_at) / RFU RASL12 (11751679_a_at) / Fold change /veh RASL12 (11751679_a_at) / RFU CDKN2B (11736163_a_at) / Fold change /veh CDKN2B (11736163_a_at) / RFU PRF1 (11729649_at) / Fold change /veh PRF1 (11729649_at) / RFU, ZNF638 /// ZNF638-IT1 / Fold change vs veh, ZNF638 /// ZNF638-IT1 / RFU, PANK3 / Fold change vs veh, PANK3 / RFU, SH3YL1 / Fold change vs veh, SH3YL1 / RFU, ZEB2 / Fold change vs veh, ZEB2 / RFU, NRIP1 / Fold change vs veh, NRIP1 / RFU, PTTG1IP / Fold change vs veh, PTTG1IP / RFU, CAPN2 / Fold change vs veh, CAPN2 / RFU, MED14 / Fold change vs veh, MED14 / RFU, SNORA58 / Fold change vs veh, SNORA58 / RFU, C1orf63 / Fold change vs veh, C1orf63 / RFU, LRRFIP1 / Fold change vs veh, LRRFIP1 / RFU, NDUFAF7 / Fold change vs veh, NDUFAF7 / RFU, SLC12A2 / Fold change vs veh, SLC12A2 / RFU, IBTK / Fold change vs veh, IBTK / RFU, ESF1 / Fold change vs veh, ESF1 / Fold change vs veh, TMEM50B / RFU, TAOK1 / Fold change vs veh, TAOK1 / RFU, ACBD3 / Fold change vs veh, ACBD3 / RFU, TMA16 / Fold change vs veh, TMA16 / RFU, RWDD3 / Fold change vs veh, RWDD3 / RFU, BCAT1 / Fold change vs veh, BCAT1 / RFU, EDEM3 / Fold change vs veh, EDEM3 / RFU, TMEM33 / Fold change vs veh, TMEM33 / RFU, WDR75 / Fold change vs veh, WDR75 / RFU, AHCTF1 / Fold change vs veh, AHCTF1 / RFU, TFRC / Fold change vs veh, TFRC / RFU, ZDHHC17 / Fold change vs veh, ZDHHC17 / RFU, NOM1 / Fold change vs veh, NOM1 / RFU, ARL8B / Fold change vs veh, ARL8B / RFU, ZBTB11 / Fold change vs veh, ZBTB11 / RFU, TAMM41 / Fold change vs veh, TAMM41 / RFU, KIAA1704 /// LOC100996395 / Fold change vs veh, KIAA1704 /// LOC100996395 / RFU, ING1 / Fold change vs veh, ING1 / RFU, TRMT61B / Fold change vs veh, TRMT61B / RFU, FUBP3 / Fold change vs veh, FUBP3 / RFU, TP53 / Fold change vs veh, TP53 / RFU, TNKS2 / Fold change vs veh, TNKS2 / RFU, ZFP14 / Fold change vs veh, ZFP14 / RFU, ACTR2 / Fold change vs veh, ACTR2 / RFU, PPP3R1 / Fold change vs veh, PPP3R1 / RFU, PIK3R1 / Fold change vs veh, PIK3R1 / RFU, HNRNPA1 / Fold change vs veh, HNRNPA1 / RFU, RNF170 / Fold change vs veh, RNF170 / RFU, ZNF28 / Fold change vs veh, ZNF28 / RFU, RNGTT / Fold change vs veh, RNGTT / RFU, OGT / Fold change vs veh, OGT / RFU, BRD1 / Fold change vs veh, BRD1 / RFU, MARS / Fold change vs veh, MARS / RFU, ZNF655 / Fold change vs veh, ZNF655 / RFU, FAHD1 / Fold change vs veh, FAHD1 / RFU, BDP1 / Fold change vs veh, BDP1 / RFU, LRRCC1 / Fold change vs veh, LRRCC1 / RFU, ARID1A / Fold change vs veh, ARID1A / RFU, ZNF146 / Fold change vs veh, ZNF146 / RFU, ZNF330 / Fold change vs veh, ZNF330 / RFU, GPN3 / Fold change vs veh, GPN3 / RFU, C9orf123 / Fold change vs veh, C9orf123 / RFU, N4BP2L2 / Fold change vs veh, N4BP2L2 / RFU, ARFIP1 / Fold change vs veh, ARFIP1 / RFU, FAM179B / Fold change vs veh, FAM179B / RFU, BCL10 / Fold change vs veh, BCL10 / RFU, UHRF1BP1L / Fold change vs veh, UHRF1BP1L / RFU, BET1 / Fold change vs veh, BET1 / RFU, CNOT2 / Fold change vs veh, CNOT2 / RFU, ZNF268 / Fold change vs veh, ZNF268 / Fold change vs veh, ZNF507 / RFU, DGCR2 / Fold change vs veh, DGCR2 / RFU, WDSUB1 / Fold change vs veh, WDSUB1 / Fold change vs veh, HSP90B1 /// MIR3652 / RFU, ADSS / Fold change vs veh, ADSS / RFU, GK / Fold change vs veh, GK / RFU, ZNF148 / Fold change vs veh, ZNF148 / RFU, TAF9 / Fold change vs veh, TAF9 / RFU, SLC1A5 / Fold change vs veh, SLC1A5 / RFU, SLMO2 / Fold change vs veh, SLMO2 / RFU, ABCC4 / Fold change vs veh, ABCC4 / RFU, LOC101060439 /// RAP1B / Fold change vs veh, LOC101060439 /// RAP1B / RFU, RFX7 / Fold change vs veh, RFX7 / RFU, GTPBP10 / Fold change vs veh, GTPBP10 / RFU, CNEP1R1 / Fold change vs veh, CNEP1R1 / RFU, BIVM-ERCC5 /// ERCC5 / Fold change vs veh, BIVM-ERCC5 /// ERCC5 / RFU, ILF3 / Fold change vs veh, ILF3 / RFU 11762660_at / Fold change /veh 11762660_at / RFU VCAN (11757783_s_at) / Fold change /veh VCAN (11757783_s_at) / RFU DDX43 (11728927_at) / Fold change /veh DDX43 (11728927_at) / RFU KRT8 (11758188_x_at) / Fold change /veh KRT8 (11758188_x_at) / RFU NKD1 (11759106_at) / Fold change /veh NKD1 (11759106_at) / RFU SRD5A1 (11742802_a_at) / Fold change /veh SRD5A1 (11742802_a_at) / RFU TPSAB1 /// TPSB2 (11721975_s_at) / Fold change /veh TPSAB1 /// TPSB2 (11721975_s_at) / RFU GSTM3 (11746129_a_at) / Fold change /veh GSTM3 (11746129_a_at) / RFU IL23R (11737362_x_at) / Fold change /veh IL23R (11737362_x_at) / RFU TMEM51 (11727254_a_at) / Fold change /veh TMEM51 (11727254_a_at) / RFU PIWIL2 (11732686_x_at) / Fold change /veh PIWIL2 (11732686_x_at) / RFU ORM1 (11744905_x_at) / Fold change /veh ORM1 (11744905_x_at) / RFU CCDC152 (11743942_at) / Fold change /veh CCDC152 (11743942_at) / RFU ECM1 (11717891_a_at) / Fold change /veh ECM1 (11717891_a_at) / RFU IL23R (11748794_a_at) / Fold change /veh IL23R (11748794_a_at) / RFU TNFAIP8L3 (11732012_x_at) / Fold change /veh TNFAIP8L3 (11732012_x_at) / RFU MBOAT4 (11741988_at) / Fold change /veh MBOAT4 (11741988_at) / RFU 11764193_at / Fold change /veh 11764193_at / RFU TMEM53 (11763286_at) / Fold change /veh TMEM53 (11763286_at) / RFU MAGEB2 (11727129_at) / Fold change /veh MAGEB2 (11727129_at) / RFU TMEM200A (11744735_a_at) / Fold change /veh TMEM200A (11744735_a_at) / RFU CCDC152 (11751479_a_at) / Fold change /veh CCDC152 (11751479_a_at) / RFU FAM211A (11726209_a_at) / Fold change /veh FAM211A (11726209_a_at) / RFU RGS16 (11746705_a_at) / Fold change /veh RGS16 (11746705_a_at) / RFU VCAN (11755009_s_at) / Fold change /veh VCAN (11755009_s_at) / RFU RHOB (11743442_s_at) / Fold change /veh RHOB (11743442_s_at) / RFU RGS16 (11720943_a_at) / Fold change /veh RGS16 (11720943_a_at) / RFU RGS16 (11720944_at) / Fold change /veh RGS16 (11720944_at) / RFU, VPS4B / Fold change vs veh, VPS4B / RFU, CREB1 / Fold change vs veh, CREB1 / RFU, DNAJC13 / Fold change vs veh, DNAJC13 / RFU, GNAQ / Fold change vs veh, GNAQ / RFU, CDK5R1 / Fold change vs veh, CDK5R1 / RFU, ZRANB3 / Fold change vs veh, ZRANB3 / RFU, CUL4A / Fold change vs veh, CUL4A / RFU, CCNY / Fold change vs veh, CCNY / RFU, UFL1 / Fold change vs veh, UFL1 / RFU, COG3 / Fold change vs veh, COG3 / RFU, DIAPH2 / Fold change vs veh, DIAPH2 / RFU, SKA2 / Fold change vs veh, SKA2 / RFU, AFF3 / Fold change vs veh, AFF3 / RFU, LMF1 / Fold change vs veh, LMF1 / RFU, IPO11 / Fold change vs veh, IPO11 / RFU, DFFB / Fold change vs veh, DFFB / RFU, FOXP1 / Fold change vs veh, FOXP1 / RFU, CARD8 / Fold change vs veh, CARD8 / RFU, STRN3 / Fold change vs veh, STRN3 / RFU, ADK / Fold change vs veh, ADK / RFU, RASSF2 / Fold change vs veh, RASSF2 / RFU, WIPF1 / Fold change vs veh, WIPF1 / RFU, LARP1B / Fold change vs veh, LARP1B / RFU, RASA1 / Fold change vs veh, RASA1 / RFU, RB1 / Fold change vs veh, RB1 / RFU, PPFIA1 / Fold change vs veh, PPFIA1 / RFU, MAT2A / Fold change vs veh, MAT2A / RFU, CCT5 / Fold change vs veh, CCT5 / RFU, WDR92 / Fold change vs veh, WDR92 / RFU, CUX1 / Fold change vs veh, CUX1 / RFU, TTC7A / Fold change vs veh, TTC7A / RFU, TMEM135 / Fold change vs veh, TMEM135 / RFU, DEPTOR / Fold change vs veh, DEPTOR / RFU, CPM / Fold change vs veh, CPM / RFU, DNAJB6 / Fold change vs veh, DNAJB6 / RFU, CACNA2D3 / Fold change vs veh, CACNA2D3 / RFU, DTX4 / Fold change vs veh, DTX4 / RFU, TFCP2 / Fold change vs veh, TFCP2 / RFU, GMCL1 /// GMCL1P1 / Fold change vs veh, GMCL1 /// GMCL1P1 / RFU, AEBP2 / Fold change vs veh, AEBP2 / RFU, SNHG1 /// SNORD22 /// SNORD25 /// SNORD26 /// SNORD27 /// SNORD28 /// SNORD29 /// SNORD31 / Fold change vs veh, SNHG1 /// SNORD22 /// SNORD25 /// SNORD26 /// SNORD27 /// SNORD28 /// SNORD29 /// SNORD31 / Fold change (Aza/veh), C12orf56 (ProbeSet 11735607_a_at) / Fold change (ACY-1035/veh), C12orf56 (ProbeSet 11735607_a_at) / Fold change (Aza/veh), FGFR1OP (ProbeSet 11751329_s_at) / Fold change (ACY-1035/veh), FGFR1OP (ProbeSet 11751329_s_at) / Fold change (Aza/veh), VPS36 (ProbeSet 11739960_a_at) / Fold change (ACY-1035/veh), VPS36 (ProbeSet 11739960_a_at) / RFU SYPL1 (11715823_x_at) / Fold change /veh SYPL1 (11715823_x_at) / RFU IGFBP7 (11715501_s_at) / Fold change /veh IGFBP7 (11715501_s_at) / RFU REEP3 (11722064_at) / Fold change /veh REEP3 (11722064_at) / RFU IGLL1 (11728026_x_at) / Fold change /veh IGLL1 (11728026_x_at): dose or concentration left out as unconfirmed. The class given is cell-based, human.

Take `Nc1ccc(-c2cccs2)cc1NC(=O)c1ccc2c(c1)cc(C1CC1)n2CCN1CCOCC1` [ACY-1035]: the “Fold change /veh A4GNT (11735810_at)” value is reported as 1.01.
